Test results as given in article PMC6658735 (Biomaterials, 2019).

Key:
[1] = test system: AM microtissues
[2] = test system: AM microtissues; assay: Effect of ROCK inhibitor on AM cyst formation; assay type: cell-based, human; details: 10 μM
[3] = day 0 to day 3, control: Y27632 removed at day 1

Which “toxicity on the AM development (dose-response, in words)” value [1] does the source give for COc1cccc2c1C(=O)c1c(O)c3c(c(O)c1C2=O)C[C@@](O)(C(=O)CO)C[C@@H]3O[C@H]1C[C@H](N)[C@H](O)[C@H](C)O1 [Doxorubicin] here?
The value was “induces massive cell death shortly after treatment”.

How did the cyst morphology ([2]; day 0 to day 3) turn out when C[C@@H](N)[C@H]1CC[C@H](C(=O)Nc2ccncc2)CC1 [Y27632] was run?
The cyst morphology was “flattened and collapsed morphology without a visible single, central lumen”.

What about the “lumens per cyst (EZRIN immunostaining)” value ([2]; day 0 to day 3, control has a single central lumen) of the same molecule?
Its value is “multiple EZRIN+ lumens”.

What about the “average normalized nuclear intensity of GATA3 vs untreated control” value [2, 3] of the same molecule?
Its value is “no significant differences”.

And the “average normalized nuclear intensity of TFAP2A vs untreated control” value [2, 3]?
The value was “no significant differences”.

And the “average normalized nuclear intensity of TFAP2B vs untreated control” value [2, 3]?
The value was “no significant differences”.
